Experiment [1] has as its target T1, Aurora A (Homo sapiens (Human), UniProt O14965). Nature of the experiment: Aurora A degradation assay (western blot). The format is cell-based. As to conditions: protein degradation, IMR32, Huh7 or HL-60 cells; for Dmax: read-out: Aurora A Dmax. As for the experimental part: Aurora A Degradation Assay
IMR32 cells were cultured with medium (MEM), Huh7 cells were cultured with medium (DMEM) and HL-60 cells were culture with medium (IMDM) prior to use. Cells were then incubated with a variety of concentrations of compound. After incubation, the cells were collected and lysed. The protein concentration was determined by BCA protein assay kit from Thermo (23227). The AURKA protein level was determined by western blots, using anti-human AURKA monoclonal antibody from CST (14475S). Proteins were loaded into each well of the pre-casting gels and subjected to electrophoretic separation by SDS-PAGE. The protein resolved by SDS-PAGE were transferred to PVDF, blocked by 5% skim milk, and probed with anti-human AURKA antibody or β-actin antibody from CST (3700S) or COX IV antibody from CST (4850S), using standard western blotting procedure.
(Immunoblotting shows a protein as a band on a membrane.)

Another experiment deals with MEK 1/2. Put plainly: MEK 1/2 degradation assay (western blot). To be noted: protein degradation, MV-411 or IMR32 cells. Format: cell-based, human. As for the experimental part: MEK 1/2 Degradation Assay
(§1) MV-411 cells were cultured with medium (IMDM) and IMR32 cells were cultured with medium (MEM) prior to use. Cells were then incubated with a variety of concentrations of compound. After incubation, the cells were collected and lysed. The protein concentration was determined by BCA protein assay kit from Thermo (23227). The […] protein level was determined by western blots, using anti-human MEK 1/2 polyclonal antibody from CST (9122S). Proteins were loaded into each well of the pre-casting gels and subjected to electrophoretic separation by SDS-PAGE. The protein resolved by SDS-PAGE were transferred to PVDF, blocked by 5% skim milk, and probed with anti-human MEK1/2 antibody or β-actin antibody from CST (3700S) and COX IV antibody from CST (4850S), using standard western blotting procedure.

The test system of another experiment is FLT3. Nature of the experiment: FLT3 degradation assay (western blot, MV-411 cells). Format: cell-based, human. As for the experimental part:
as §1, with “(IMDM)” for “(IMDM) and IMR32 cells were cultured with medium (MEM)”, “FLT3 monoclonal” for “MEK 1/2 polyclonal”, “(3462S).” for “(9122S).”, “FLT3” for “MEK1/2”, “-actin” for “β-actin”, “(3700S),” for “(3700S) and COX IV antibody from CST (4850S),”

Experiment [2] has as its target T2, HPK1 (Homo sapiens (Human), UniProt Q92918). Put plainly: HPK1 degradation assay (western blot, human PBMC). Format: cell-based. To be noted: for Dmax: read-out: HPK1 Dmax. As for the experimental part:
Frozen human PBMC were purchased from Shanghai OribioTech and recovered with culture medium (RMPI1640) prior to use. The cells were then incubated with a variety of concentrations of compound. After incubation, the cells were collected and lysed. The protein concentration was determined by BCA protein assay kit from Thermo (23227). The HPK1 protein level was determined by western blots, using anti-human HPK1 polyclonal antibody from CST (4472S). Proteins were loaded into each well of the pre-casting gels and subjected to electrophoretic separation by SDS-PAGE. The protein resolved by SDS-PAGE were transferred to PVDF, blocked by 5% skim milk, and probed with anti-human HPK1 antibody or β-actin antibody from CST (3700S), using standard western blotting procedure.
Target sequence in this assay (Q92918 whole entry): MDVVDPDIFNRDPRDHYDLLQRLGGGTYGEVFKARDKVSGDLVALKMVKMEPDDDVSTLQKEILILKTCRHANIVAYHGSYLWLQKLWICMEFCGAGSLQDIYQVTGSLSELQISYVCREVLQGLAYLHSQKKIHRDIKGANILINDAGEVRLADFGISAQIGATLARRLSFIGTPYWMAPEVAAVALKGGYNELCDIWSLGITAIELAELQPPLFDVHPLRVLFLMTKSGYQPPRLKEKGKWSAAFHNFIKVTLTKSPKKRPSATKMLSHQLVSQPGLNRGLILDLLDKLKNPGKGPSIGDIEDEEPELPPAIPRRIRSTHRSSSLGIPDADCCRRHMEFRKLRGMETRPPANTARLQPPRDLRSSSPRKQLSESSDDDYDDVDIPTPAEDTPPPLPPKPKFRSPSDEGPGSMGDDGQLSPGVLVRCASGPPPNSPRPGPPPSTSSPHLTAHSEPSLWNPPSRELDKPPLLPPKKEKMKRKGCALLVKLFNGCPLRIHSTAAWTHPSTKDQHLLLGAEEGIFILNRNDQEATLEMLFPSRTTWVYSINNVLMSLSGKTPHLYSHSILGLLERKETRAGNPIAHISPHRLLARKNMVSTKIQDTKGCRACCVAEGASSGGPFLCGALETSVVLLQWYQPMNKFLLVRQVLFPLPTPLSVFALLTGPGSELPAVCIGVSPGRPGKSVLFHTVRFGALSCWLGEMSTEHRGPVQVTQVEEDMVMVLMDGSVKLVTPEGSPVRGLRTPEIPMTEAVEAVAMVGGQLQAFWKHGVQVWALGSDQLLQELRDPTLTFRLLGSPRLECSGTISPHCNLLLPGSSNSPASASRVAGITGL

The target in experiment [3] is T2, HPK1. Put plainly: HPK1 enzyme inhibition assay (ADP-Glo). The format is biochemical. How it is done: HPK1 Enzyme Inhibition Assay
The compound was dissolved in 100% DMSO at the concentration of 10 mM. The HPK1 protein was purchased from Signal Chem (M23-11G-10). 2.5 μL per well of 2×HPK1 protein was added to assay plate containing the test compound, centrifuged at 1500 rpm for 1 minute, and then incubated at 25° C. for 60 minutes. MBP protein was purchased from Signal Chem (M42-51N) and ATP was purchased from Promega (V9102). The two were added 2.5 μL per well mixture of 2×MBP (0.2 ug/ul) and ATP (20 μM), centrifuged at 1500 rpm for 1 minute, then incubated at 25° C. for 60 minutes. Then added 5 μL of ADP-Glo from Promega (V9102) to the assay plate and depleted the unconsumed ATP for 60 minutes. Then centrifuged at 1500 rpm for 1 minute and incubated at 25° C. for 60 minutes. Finally, 10 μL of the kinase assay reagent from Promega (V9102) was added to the assay plate to convert ADP to ATP, centrifuged at 1500 rpm for 1 minute, incubate at 25° C. for 40 minutes. After 40 minutes incubation, the […] was determined. Based on the results, the IC50 value of the compound was calculated.
Target sequence in this assay (Q92918 1-346 limits assumed): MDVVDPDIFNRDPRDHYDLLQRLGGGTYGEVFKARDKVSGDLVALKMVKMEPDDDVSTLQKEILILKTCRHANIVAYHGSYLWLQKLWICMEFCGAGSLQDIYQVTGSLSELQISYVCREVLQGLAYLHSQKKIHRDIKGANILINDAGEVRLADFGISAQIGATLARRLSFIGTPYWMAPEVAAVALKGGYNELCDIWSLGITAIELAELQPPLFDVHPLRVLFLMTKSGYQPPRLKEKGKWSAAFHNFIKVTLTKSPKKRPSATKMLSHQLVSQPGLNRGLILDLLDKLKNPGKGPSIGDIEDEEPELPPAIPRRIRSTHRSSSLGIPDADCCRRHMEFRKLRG
(In general: ADP-Glo turns the ADP formed in a reaction into a luminescent signal.)

The target in a further experiment is FLT3-ITD (Homo sapiens, UniProt P36888, ITD). Nature of the experiment: FLT3-ITD enzyme inhibition assay. Format: biochemical. As for the experimental part: FLT3-ITD Enzyme Inhibition Assay
Chain of FLT3-ITD (P36888 whole entry, looked up, change not shown): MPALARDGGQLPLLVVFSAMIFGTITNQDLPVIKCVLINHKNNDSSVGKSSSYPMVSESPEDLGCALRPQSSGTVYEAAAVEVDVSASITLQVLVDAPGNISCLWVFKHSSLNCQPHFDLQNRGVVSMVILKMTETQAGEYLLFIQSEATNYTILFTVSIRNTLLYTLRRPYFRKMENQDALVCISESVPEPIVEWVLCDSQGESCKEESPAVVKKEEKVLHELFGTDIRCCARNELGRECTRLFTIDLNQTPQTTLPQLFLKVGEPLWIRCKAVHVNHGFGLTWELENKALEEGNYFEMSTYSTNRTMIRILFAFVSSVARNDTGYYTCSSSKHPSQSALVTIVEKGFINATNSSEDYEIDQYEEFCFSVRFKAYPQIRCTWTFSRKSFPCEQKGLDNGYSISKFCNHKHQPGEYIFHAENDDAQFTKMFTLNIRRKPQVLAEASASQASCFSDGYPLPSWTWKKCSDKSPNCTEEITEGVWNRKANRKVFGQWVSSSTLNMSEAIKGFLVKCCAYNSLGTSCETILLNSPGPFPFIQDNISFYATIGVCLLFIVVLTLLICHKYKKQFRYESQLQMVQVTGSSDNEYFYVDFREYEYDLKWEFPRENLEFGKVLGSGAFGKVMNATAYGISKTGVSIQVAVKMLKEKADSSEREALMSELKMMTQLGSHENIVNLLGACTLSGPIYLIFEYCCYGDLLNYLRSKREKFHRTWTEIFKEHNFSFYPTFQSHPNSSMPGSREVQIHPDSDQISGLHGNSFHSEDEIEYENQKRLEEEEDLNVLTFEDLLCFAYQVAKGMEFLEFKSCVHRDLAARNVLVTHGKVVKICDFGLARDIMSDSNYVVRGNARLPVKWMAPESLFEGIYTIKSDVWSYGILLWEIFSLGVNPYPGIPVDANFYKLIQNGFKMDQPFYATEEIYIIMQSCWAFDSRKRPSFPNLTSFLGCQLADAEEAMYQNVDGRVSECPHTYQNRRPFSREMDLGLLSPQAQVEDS
The compound was dissolved in 100% DMSO at the concentration of 10 mM. The FLT3-ITD protein was purchased from Invitrogen (PV6191). 10 μL per well of 2.5×FLT3-ITD protein was added to assay plate containing the test compound, centrifuged at 1000 rpm for 1 minute, and then incubated at 25° C. for 10 minutes. Peptide 2 was purchased from GL Biochem (112394) and ATP was purchased from Promega (V9102). The two were added 15 μL per well mixture of 1.67× peptide 2 (final conc. is 3 μM) and ATP (final conc. is 97.2 μM), centrifuged at 1000 rpm for 1 minute, then incubated at 25° C. for 40 minutes. Then added 30 μL of stop buffer (100 mM HEPES pH7.5, 0.015% Brij-35, 0.2% Coating Reagent 3, 50 mM EDTA) to the assay plate and centrifuged at 1000 rpm for 1 minute. the product was determined. Based on the results, the IC50 value of the compound was calculated.

Experiment [4] has as its target T1, Aurora A. Nature of the experiment: Aurora A enzyme inhibition assay. The format is biochemical. As for the experimental part:
Aurora A Enzyme Inhibition Assay
The compound was dissolved in 100% DMSO at the concentration of 10 mM. The Aurora A protein was purchased from Carna (05-101). 10 μL per well of 2.5×Aurora A protein was added to assay plate containing the test compound, centrifuged at 1000 rpm for 1 minute, and then incubated at 25° C. for 10 minutes. Peptide 21 was purchased from GL Biochem (116370) and ATP was purchased from Promega (V9102). The two were added 15 μL per well mixture of 1.67× peptide 21 (final conc. is 3 μM) and ATP (final conc. is 14.58 μM), centrifuged at 1000 rpm for 1 minute, then incubated at 25° C. for 40 minutes. Then added 30 μL of stop buffer (100 mM HEPES pH7.5, 0.015% Brij-35, 0.2% Coating Reagent 3, 50 mM EDTA) to the assay plate and centrifuged at 1000 rpm for 1 minute. the product was determined. Based on the results, the IC50 value of the compound was calculated.

[5] abbreviates: protein degradation, class symbol, read-out: FLT3 DC50 (nM)/Dmax (%).
[6] abbreviates: enzyme inhibition, read-out: FLT3-ITD IC50.
Setting [7] is: protein degradation, human PBMC, read-out: HPK1 DC50.
Setting [8] is: protein degradation, human PBMC.

Like-named read-outs stand apart in the source and are kept apart here.

For orientation: Dmax means the greatest extent of degradation seen. The term IC50 denotes the concentration that gives 50% inhibition.

T1 sequence (O14965 whole entry): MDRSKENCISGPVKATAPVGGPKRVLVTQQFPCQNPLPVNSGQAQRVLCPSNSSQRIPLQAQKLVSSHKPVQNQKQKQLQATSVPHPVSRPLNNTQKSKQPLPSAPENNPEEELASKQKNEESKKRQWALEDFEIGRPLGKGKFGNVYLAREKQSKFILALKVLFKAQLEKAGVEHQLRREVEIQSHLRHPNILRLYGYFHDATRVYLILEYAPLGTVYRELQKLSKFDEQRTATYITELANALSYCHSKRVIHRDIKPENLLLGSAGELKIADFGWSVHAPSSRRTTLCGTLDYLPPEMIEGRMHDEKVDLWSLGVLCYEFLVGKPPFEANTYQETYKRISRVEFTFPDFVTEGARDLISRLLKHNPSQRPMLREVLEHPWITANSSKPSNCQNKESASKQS

`O=C1CCC(N2Cc3ccc(N4CCC(CN5CCCN(c6cccc(-c7cnc8[nH]cc(C9CC9)c8c7Cl)c6)C5=O)CC4)cc3C2=O)C(=O)N1` (stereo not drawn) [Example 11]: the DC50 is 9 nM on Aurora A [1] (read-out: Aurora A DC50); 49 nM in the experiment with MEK 1/2 (read-out: MEK 1/2 DC50); greater than 10000 nM with FLT3 (setting [5]); greater than 10000 nM at HPK1 [2] (protein degradation, human PBMC, class symbol, read-out: HPK1 DC50 (nM)/Dmax (%)). For the same compound, the greatest degradation seen (Dmax) at Aurora A [1] worked out at 50%. Moreover, the “MEK 1/2 Dmax” value in the experiment on MEK 1/2 worked out at 30%. Besides, the concentration for half-maximal inhibition (IC50) against HPK1 [3] came out at 13.6 nM; at FLT3-ITD (setting [6]), 20.8 nM; at Aurora A [4] it was 21.2 nM.
With `CCc1c[nH]c2ncc(-c3cccc(N4CCCN(CC5CCN(c6ccc7c(c6)C(=O)N(C6CCC(=O)N(C)C6=O)C7=O)CC5)C4=O)c3)c(Cl)c12` (stereo not drawn) [Example 10, 5-(4-((3-(3-(4-chloro-3-ethyl-1H-pyrrolo [2,3-b]pyridin-5-yl)phenyl)-2-oxotetrahydropyrimidin-1 (2H)-yl)methyl)piperidin-1-yl)-2-(1-methyl-2,6-dioxopiperidin-3-yl) isoindoline-1,3-dione], the half-maximal inhibitory concentration (IC50) against HPK1 [3] was 30.7 nM; on FLT3-ITD (setting [6]) it was 7.4 nM; at Aurora A [4], 34.8 nM.
Consider `CCc1c[nH]c2ncc(-c3cccc(N4CCCN(CCN5CC(c6ccc7c(c6)C(=O)N(C6CCC(=O)NC6=O)C7)C5)C4=O)c3)c(Cl)c12` (stereo not drawn) [Example 1], for which the DC50 was greater than 10000 nM on Aurora A [1] (class symbol, read-out: Aurora A DC50 (nM)/Dmax (%)); 68 nM with MEK 1/2 (read-out: MEK 1/2 DC50); greater than 10000 nM in the experiment with FLT3 (setting [5]); 173 nM at HPK1 [2] (setting [7]). Moreover, the “MEK 1/2 Dmax” value in the experiment with MEK 1/2 is 20%. Moreover, the Dmax on HPK1 [2] (setting [8]) is 75%. The half-maximal inhibitory concentration (IC50) on FLT3-ITD (setting [6]) was 4 nM.
On to `CCc1c[nH]c2ncc(-c3cccc(N4CCCN(CCN5CC(c6ccc7c(c6)CN(C6CCC(=O)NC6=O)C7=O)C5)C4=O)c3)c(Cl)c12` (stereo not drawn) [Example 2], for which the DC50 was greater than 10000 nM at Aurora A [1] (read-out: Aurora A DC50 (nM)/Dmax (%), class symbol); greater than 10000 nM in the experiment with MEK 1/2 (read-out: MEK 1/2 DC50 (nM)/Dmax (%), class symbol); greater than 10000 nM with FLT3 (read-out: FLT3 DC50 (nM)/Dmax (%), protein degradation, class symbol); 3 nM on HPK1 [2] (read-out: HPK1 DC50, protein degradation, human PBMC). At HPK1 [2], the maximal degradation (Dmax) was 80%. This compound displayed an IC50 against FLT3-ITD of 4.7 nM.
For the compound `CCc1c[nH]c2ncc(-c3cccc(N4CCCN(CCN5CCN(c6ccc(NC7CCC(=O)NC7=O)cc6F)CC5)C4=O)c3)c(Cl)c12` (stereo not drawn) [Example 18], the DC50 at Aurora A [1] (read-out: Aurora A DC50) is 1.1 nM; in the experiment on MEK 1/2 (read-out: MEK 1/2 DC50), 1 nM; in the experiment on FLT3 (setting [5]) it was greater than 10000 nM; at HPK1 [2] (setting [7]) it was 1 nM. The maximal degradation (Dmax) at Aurora A [1] was found to be 74%; at HPK1 [2] (setting [8]), 52%. The “MEK 1/2 Dmax” value with MEK 1/2 worked out at 74%. In addition, the IC50 on HPK1 [3] worked out at 2.5 nM; on FLT3-ITD (setting [6]), 5.4 nM; against Aurora A [4], 10.6 nM.
Compound `O=C1CCC(N2Cc3cc(N4CCC(CN5CCCN(c6cccc(-c7cnc8[nH]cc(C9CC9)c8c7Cl)c6)C5=O)CC4)ccc3C2=O)C(=O)N1` (stereo not drawn) [Example 12, 3-[5-(4-{[3-(3-{4-chloro-3-cyclopropyl-1H-pyrrolo [2,3-b]pyridin-3-yl}phenyl)-2-oxo-1,3-diazinan-1-yl]methyl}piperidin-1-yl)-1-oxo-3H-isoindol-2-yl]piperidine-2,6-dione] returned an IC50 on HPK1 [3] of 34.3 nM.
With `CCc1c[nH]c2ncc(-c3cccc(N4CCCN(CCN5CCC(c6ccc7c(c6)C(=O)N(C6CCC(=O)NC6=O)C7=O)CC5)C4=O)c3)c(Cl)c12` (stereo not drawn) [Example 3, 5-(1-(2-(3-(3-(4-chloro-3-ethyl-1H-pyrrolo [2,3-b]pyridin-5-yl)phenyl)-2-oxotetrahydropyrimidin-1 (2H)-yl)ethyl)piperidin-4-yl)-2-(2,6-dioxopiperidin-3-yl) isoindoline-1,3-dione], the half-inhibitory concentration (IC50) against HPK1 [3] was 5.8 nM; on FLT3-ITD (setting [6]) it was 13.6 nM; against Aurora A [4], 50.8 nM.
For `O=C1CCC(N2Cc3cc(N4CCC(CN5CCCN(c6cccc(-c7cnc8[nH]cc(CC(F)F)c8c7Cl)c6)C5=O)CC4)ccc3C2=O)C(=O)N1` (stereo not drawn) [Example 14], the DC50 is less than 20 nM at Aurora A [1] (read-out: Aurora A DC50); less than 100 nM in the experiment on MEK 1/2 (read-out: MEK 1/2 DC50); 11 nM with FLT3 (protein degradation, read-out: FLT3 DC50); 100 nM on HPK1 [2] (setting [7]). For the same compound, the greatest degradation seen (Dmax) on Aurora A [1] is 95%; at HPK1 [2] (setting [8]) it was 90%. Moreover, the “MEK 1/2 Dmax” value in the experiment with MEK 1/2 came to 90%. In addition, the “FLT3 Dmax” value with FLT3 (protein degradation) came to 95%. Moreover, inhibition at HPK1 [3] was half-maximal at 25.8 nM (IC50).

The record behind these values is US20250368640A1 (BIOFRONT LTD, priority 2022, published 2025).
